Experimental data: BindingDB's records for doi:10.1016/j.bmcl.2004.04.026 (Morphochem, 2004)

Key:
[1] = biological target: T1, Human immunodeficiency virus type 1 protease (Human immunodeficiency virus 1, UniProt Q72874); experiment: Evaluated for inhibition of Protease after CLND/MS correction from the crude mixture
[2] = biological target: T1, Human immunodeficiency virus type 1 protease; experiment: Inhibitory concentration against Protease
[3] = biological target: T1, Human immunodeficiency virus type 1 protease; experiment: Evaluated for inhibition of Protease after resynthesis and purification

`C[C@@H](c1ccccc1)C1C(=O)O[C@](CCc2ccccc2)(C(=O)NCc2ccc(C(C)(C)C)cc2)C1=O` (some centres not stated) showed an IC50 [1] of 1.2 µM, an IC50 [2] of 84 µM and an IC50 [3] of 4.6 µM.

With `COc1cc(CC2C(=O)OC(C)(C(=O)NC3CC3)C2=O)cc(OC)c1OC` (configuration not stated) [3-Hydroxy-2-methyl-5-oxo-4-(3,4,5-trimethoxy-benzyl)-2,5-dihydro-furan-2-carboxylic acid cyclopropylamide] the IC50 [2] was > 1000 µM.

With `COc1cc(CC2C(=O)OC(C)(C(=O)NC(C)(C)C)C2=O)cc(OC)c1OC` (configuration not stated) [3-Hydroxy-2-methyl-5-oxo-4-(3,4,5-trimethoxy-benzyl)-2,5-dihydro-furan-2-carboxylic acid tert-butylamide] the IC50 [2] was > 1000 µM.

With `CNC1C(=O)OC(CCc2ccccc2)(C(=O)NCC2CCCO2)C1=O` (configuration not stated) [3-Hydroxy-4-methylamino-5-oxo-2-phenethyl-2,5-dihydro-furan-2-carboxylic acid (tetrahydro-furan-2-ylmethyl)-amide] the IC50 [2] was > 1000 µM.

With `COc1cc(CC2C(=O)OC(CCc3ccccc3)(C(=O)NCC(C)(C)C)C2=O)cc(OC)c1OC` (configuration not stated) [3-Hydroxy-5-oxo-2-phenethyl-4-(3,4,5-trimethoxy-benzyl)-2,5-dihydro-furan-2-carboxylic acid (2,2-dimethyl-propyl)-amide] the IC50 [2] was > 1000 µM.
